Measured values reported in ChEMBL document CHEMBL3407459, “Synthesis and antimicrobial activity of novel structural hybrids of benzofuroxan and benzothiazole derivatives” (2015).

Experiments:
Escherichia coli [1] = assay: Antibacterial activity against Escherichia coli MG1655 harboring pXen7 assessed as toxicity index at 10^-11 M measured for 2 hrs by luminometric analysis; assay type: functional, K-12 substr. MG1655
Escherichia coli [2] = assay: Antibacterial activity against Escherichia coli MG1655 harboring pIbpA-lux assessed as maximum induction factor at 10^-13 M after 120 mins by luminometric analysis; assay type: functional, K-12 substr. MG1655
Escherichia coli [3] = assay: Antibacterial activity against Escherichia coli MG1655 harboring pIbpA-lux assessed as maximum induction factor at 10^-6 M after 120 mins by luminometric analysis; assay type: functional, K-12 substr. MG1655
Escherichia coli [4] = assay: Antibacterial activity against Escherichia coli MG1655 harboring pSoxS-lux assessed as maximum induction factor at 10^-12 M after 120 mins by luminometric analysis; assay type: functional, K-12 substr. MG1655
Escherichia coli [5] = assay: Antibacterial activity against Escherichia coli MG1655 harboring pKatG-lux assessed as maximum induction factor at 10^-8 M after 120 mins by luminometric analysis; assay type: functional, K-12 substr. MG1655
Vibrio sp. [6] = assay: Antibacterial activity against Vibrio aqamarinus VKPM B-11245 assessed as toxicity index at 10^-10 M measured for 2 hrs by luminometric analysis; assay type: functional
Escherichia coli [7] = assay: Antibacterial activity against Escherichia coli MG1655 harboring pRecA-lux assessed as maximum induction factor at 10^-8 M after 120 mins by luminometric analysis; assay type: functional, K-12 substr. MG1655
Escherichia coli [8] = assay: Antibacterial activity against Escherichia coli MG1655 harboring pXen7 assessed as toxicity index at 10^-12 M measured for 2 hrs by luminometric analysis; assay type: functional, K-12 substr. MG1655
Escherichia coli [9] = assay: Antibacterial activity against Escherichia coli MG1655 harboring pKatG-lux assessed as maximum induction factor at 10^-14 M after 120 mins by luminometric analysis; assay type: functional, K-12 substr. MG1655
Escherichia coli [10] = assay: Antibacterial activity against Escherichia coli MG1655 harboring pRecA-lux assessed as maximum induction factor at 10^-4 M after 120 mins by luminometric analysis; assay type: functional, K-12 substr. MG1655
Escherichia coli [11] = assay: Antibacterial activity against Escherichia coli MG1655 harboring pRecA-lux assessed as maximum induction factor at 10^-6 M after 120 mins by luminometric analysis; assay type: functional, K-12 substr. MG1655
Escherichia coli [12] = assay: Antibacterial activity against Escherichia coli MG1655 harboring pGrpE-lux assessed as maximum induction factor at 10^-5 M after 120 mins by luminometric analysis; assay type: functional, K-12 substr. MG1655
Escherichia coli [13] = assay: Antibacterial activity against Escherichia coli MG1655 harboring pIbpA-lux assessed as maximum induction factor at 10^-7 M after 120 mins by luminometric analysis; assay type: functional, K-12 substr. MG1655
Escherichia coli [14] = assay: Antibacterial activity against Escherichia coli MG1655 harboring pGrpE-lux assessed as maximum induction factor at 10^-14 M after 120 mins by luminometric analysis; assay type: functional, K-12 substr. MG1655
Escherichia coli [15] = assay: Antibacterial activity against Escherichia coli MG1655 harboring pGrpE-lux assessed as maximum induction factor at 10^-8 M after 120 mins by luminometric analysis; assay type: functional, K-12 substr. MG1655
Escherichia coli [16] = assay: Antibacterial activity against Escherichia coli MG1655 harboring pSoxS-lux assessed as maximum induction factor at 10^-13 M after 120 mins by luminometric analysis; assay type: functional, K-12 substr. MG1655
Escherichia coli [17] = assay: Antibacterial activity against Escherichia coli MG1655 harboring pKatG-lux assessed as maximum induction factor at 10^-5 M after 120 mins by luminometric analysis; assay type: functional, K-12 substr. MG1655
Escherichia coli [18] = assay: Antibacterial activity against Escherichia coli MG1655 harboring pColD-lux assessed as maximum induction factor at 10^-13 M after 120 mins by luminometric analysis; assay type: functional, K-12 substr. MG1655
Escherichia coli [19] = assay: Antibacterial activity against Escherichia coli MG1655 harboring pColD-lux assessed as maximum induction factor at 10^-12 M after 120 mins by luminometric analysis; assay type: functional, K-12 substr. MG1655
Escherichia coli [20] = assay: Antibacterial activity against Escherichia coli MG1655 harboring pColD-lux assessed as maximum induction factor at 10^-8 M after 120 mins by luminometric analysis; assay type: functional, K-12 substr. MG1655
Escherichia coli [21] = assay: Antibacterial activity against Escherichia coli MG1655 harboring pGrpE-lux assessed as maximum induction factor at 10^-3 M after 120 mins by luminometric analysis; assay type: functional, K-12 substr. MG1655
Escherichia coli [22] = assay: Antibacterial activity against Escherichia coli MG1655 harboring pRecA-lux assessed as maximum induction factor at 10^-14 M after 120 mins by luminometric analysis; assay type: functional, K-12 substr. MG1655
Escherichia coli [23] = assay: Antibacterial activity against Escherichia coli MG1655 harboring pKatG-lux assessed as maximum induction factor at 10^-6 M after 120 mins by luminometric analysis; assay type: functional, K-12 substr. MG1655
Escherichia coli [24] = assay: Antibacterial activity against Escherichia coli MG1655 harboring pSoxS-lux assessed as maximum induction factor at 10^-5 M after 120 mins by luminometric analysis; assay type: functional, K-12 substr. MG1655
Escherichia coli [25] = assay: Antibacterial activity against Escherichia coli MG1655 harboring pXen7 assessed as toxicity index at 10^-3 M measured for 2 hrs by luminometric analysis; assay type: functional, K-12 substr. MG1655
Escherichia coli [26] = assay: Antibacterial activity against Escherichia coli MG1655 harboring pXen7 assessed as toxicity index at 10^-9 M measured for 2 hrs by luminometric analysis; assay type: functional, K-12 substr. MG1655
Escherichia coli [27] = assay: Antibacterial activity against Escherichia coli MG1655 harboring pColD-lux assessed as maximum induction factor at 10^-14 M after 120 mins by luminometric analysis; assay type: functional, K-12 substr. MG1655
Escherichia coli [28] = assay: Antibacterial activity against Escherichia coli MG1655 harboring pKatG-lux assessed as maximum induction factor at 10^-13 M after 120 mins by luminometric analysis; assay type: functional, K-12 substr. MG1655
Escherichia coli [29] = assay: Antibacterial activity against Escherichia coli MG1655 harboring pGrpE-lux assessed as maximum induction factor at 10^-13 M after 120 mins by luminometric analysis; assay type: functional, K-12 substr. MG1655
Escherichia coli [30] = assay: Antibacterial activity against Escherichia coli MG1655 harboring pGrpE-lux assessed as maximum induction factor at 10^-12 M after 120 mins by luminometric analysis; assay type: functional, K-12 substr. MG1655
Escherichia coli [31] = assay: Antibacterial activity against Escherichia coli MG1655 harboring pIbpA-lux assessed as maximum induction factor at 10^-14 M after 120 mins by luminometric analysis; assay type: functional, K-12 substr. MG1655
Vibrio sp. [32] = assay: Antibacterial activity against Vibrio aqamarinus VKPM B-11245 assessed as toxicity index at 10^-14 M measured for 2 hrs by luminometric analysis; assay type: functional
Escherichia coli [33] = assay: Antibacterial activity against Escherichia coli MG1655 harboring pSoxS-lux assessed as maximum induction factor at 10^-14 M after 120 mins by luminometric analysis; assay type: functional, K-12 substr. MG1655
Escherichia coli [34] = assay: Antibacterial activity against Escherichia coli MG1655 harboring pGrpE-lux assessed as maximum induction factor at 10^-9 M after 120 mins by luminometric analysis; assay type: functional, K-12 substr. MG1655
[35] = Activation of quorum sensing system luxR in Escherichia coli MG1655 harboring pVFR1-lux assessed as maximum induction factor at 10^-8 M after 120 mins by luminometric analysis; conditions: Escherichia coli str. K-12 substr. MG1655
Escherichia coli [36] = assay: Antibacterial activity against Escherichia coli MG1655 harboring pKatG-lux assessed as maximum induction factor at 10^-3 M after 120 mins by luminometric analysis; assay type: functional, K-12 substr. MG1655
Escherichia coli [37] = assay: Antibacterial activity against Escherichia coli MG1655 harboring pIbpA-lux assessed as maximum induction factor at 10^-3 M after 120 mins by luminometric analysis; assay type: functional, K-12 substr. MG1655
[38] = Activation of quorum sensing system luxR in Escherichia coli MG1655 harboring pVFR1-lux assessed as maximum induction factor at 10^-5 M after 120 mins by luminometric analysis; conditions: Escherichia coli str. K-12 substr. MG1655
Escherichia coli [39] = assay: Antibacterial activity against Escherichia coli MG1655 harboring pIbpA-lux assessed as maximum induction factor at 10^-10 M after 120 mins by luminometric analysis; assay type: functional, K-12 substr. MG1655
Escherichia coli [40] = assay: Antibacterial activity against Escherichia coli MG1655 harboring pXen7 assessed as toxicity index at 10^-5 M measured for 2 hrs by luminometric analysis; assay type: functional, K-12 substr. MG1655

O=[N+]([O-])c1cc([N+](=O)[O-])c2no[n+]([O-])c2c1Sc1nc2ccccc2s1
Activity (Escherichia coli [1]): 0
Activity (Escherichia coli [2]): 1.37
Activity (Escherichia coli [3]): 1.28
Activity (Escherichia coli [4]): 1.41
Activity (Escherichia coli [5]): 0.84
Activity (Vibrio sp. [6]): 11.61
Activity (Escherichia coli [7]): 0.99
Activity (Escherichia coli [8]): 10.52
Activity (Escherichia coli [9]): 0.78
Activity (Escherichia coli [10]): 0.85
Activity (Escherichia coli [11]): 0.92
Activity (Escherichia coli [12]): 0.88
Activity (Escherichia coli [13]): 1.12
Activity (Escherichia coli [14]): 1.13
Activity (Escherichia coli [15]): 1.08
Activity (Escherichia coli [16]): 1.03
Activity (Escherichia coli [17]): 0.71
Activity (Escherichia coli [18]): 1.01
Activity (Escherichia coli [19]): 1.1
Activity (Escherichia coli [20]): 1.08
Activity (Escherichia coli [21]): 0.35
Activity (Escherichia coli [22]): 1.07
Activity (Escherichia coli [23]): 0.8
Activity (Escherichia coli [24]): 0.99
Activity (Escherichia coli [25]): 99.87
Activity (Escherichia coli [26]): 0
Activity (Escherichia coli [27]): 1.07
Activity (Escherichia coli [28]): 0.87
Activity (Escherichia coli [29]): 0.96
Activity (Escherichia coli [30]): 1.31
Activity (Escherichia coli [31]): 1.46
Activity (Vibrio sp. [32]): 5.94
Activity (Escherichia coli [33]): 1.2
Activity (Escherichia coli [34]): 1.03
Activity [35]: 2.77
Activity (Escherichia coli [36]): 0.18
Activity (Escherichia coli [37]): 1.19
Activity [38]: 1.64
Activity (Escherichia coli [39]): 1.14
Activity (Escherichia coli [40]): 33.59
